Results on three compounds are retold here after patent US20210382039A1, “METHOD FOR ASSESSING THE ABILITY OF A SUBSTANCE OR OF A COMPOSITION TO PREVENT, SLOW OR ELIMINATE THE SIGNS OF AGEING OF THE SKIN OR OF THE LIPS” (SOCIETE D'EXPLOITATION DE PRODUITS POUR LES INDUSTRIES …, priority 2018, published 2021).

Test [1] deals with extracellular interleukin IL-6. The test can be described thus: Contagious aging (bystander effect) model: extracellular IL-6 by ELISA in R6 young fibroblasts treated with product, then MCR20 conditioned medium. In kind it is cell-based, human. The conditions noted are these: for Extracellular IL-6, N1i: R6 passage young human dermal fibroblasts, treated then placed in contact with MCR20 conditioned medium, compositions diluted in 1,3-propanediol to 0.1% by mass.
Experimental: This method uses a specific antibody for human IL-6 attached to the bottom of the wells of a measuring plate. The samples to be assayed are added to the wells and the IL-6 present in the samples binds to the immobilized antibody. The wells are then washed and another biotinylated anti-human IL-6 antibody is added.
The wells are once again rinsed to remove the nonbound antibody, and streptavidin conjugated to the enzyme HRP (horseradish peroxidase) is added to the wells. The wells are once again rinsed and the HRP substrate tetramethylbenzidine is added to the wells.
The intensity of the color develops proportionately to the amount of IL-6 bound. The “stop” solution changes the color from blue to yellow, and the color intensity is measured at 450 nm by spectrophotometry. The IL-6 concentration is calculated by referring to a calibration range.
The particular process thus comprises the following steps: • Step i) of culturing of culturing human dermal fibroblasts, taken at the R19 passage in T25 flasks, • Step ii) of amplification of the cells obtained on conclusion of step i) to obtain a medium conditioned with senescent cells or “MC R20”. Amplification of the cells obtained on conclusion of step i) is performed by seeding said cells in Petri dishes at 0.3 M/Petri dish. After amplification for 4 days in Petri dishes, the culture medium of all the dishes was changed and then recovered after 48 hours of incubation. This recovered medium corresponds to the medium conditioned with senescent cells containing the SMS mediators (MCR20). • Step iii) of culturing human dermal fibroblasts, taken at the R5 passage in T25 flasks, • a step iv) of amplification of the cells obtained on conclusion of step iii) to obtain to obtain “young” or “R6” cells in the amplification phase, Steps iii) and iv) are performed in parallel with steps i) and ii).

Another test has as its system β-galactosidase. Description: Contagious aging (bystander effect) model: β-galactosidase activity by X-gal staining in R6 young fibroblasts treated with product, then MCR20 conditioned medium. It is filed as cell-based. The conditions noted are these: R6 passage young human dermal fibroblasts, treated then placed in contact with MCR20 conditioned medium; compositions diluted in 1,3-propanediol to 0.1% by mass.

Experimental for β-galactosidase: Measurement of the activity of the β-galactosidase enzyme is performed at the metabolic level, and even more particularly with a measurement involving colorimetric enzymatic detection.
Briefly, the β-galactosidase present in the cells reacts specifically with one of its substrates, X-gal (or 5-bromo-4-chloro-3-indolyl-β-D-galactopyranoside (C14H15BrClNO6)) which is deposited on the cell lawns. This substrate is a galactoside, a galactose heteroside, bonded to a substituted indole nucleus.
The particular process thus comprises the following steps: • Step i) of culturing of culturing human dermal fibroblasts, taken at the R19 passage in T25 flasks, • Step ii) of amplification of the cells obtained on conclusion of step i) to obtain a medium conditioned with senescent cells or “MC R20”. Amplification of the cells obtained on conclusion of step i) is performed by seeding said cells in Petri dishes at 0.3 M/Petri dish. After amplification for 4 days in Petri dishes, the culture medium of all the dishes was changed and then recovered after 48 hours of incubation. […]

Consider `OCCCO` [1,3-propanediol], for which, in test [1] (N1 = 8.96 (untreated, unstressed), N10 = 41.38 (untreated, MCR20)), the “Ratio R1=[(N10−N1i)×100]/[(N10−N1)] for extracellular IL-6” value was “R1 = 13.35”. Besides, the “Extracellular IL-6, N1i” value in test [1] was “N1i = 37.05 ± 2.57 pg/μg of proteins”. The “β-galactosidase, N2i” value in the test with β-galactosidase was “N2i = 13.40 ± 2.69 number of “blue” positive cells/total number of cells”.

On to `O=C1O[C@H]([C@@H](O)CO)C(O)=C1O` [vitamin C, ascorbic acid, reference compound], for which the “Extracellular IL-6, N1i” value in test [1] is listed as “N1i = 27.31 ± 3.87 pg/μg of proteins”.

Regarding `CC(=O)Oc1c(C)c(C)c2c(c1C)CC[C@@](C)(CCC[C@H](C)CCC[C@H](C)CCCC(C)C)O2` [vitamin E, D-α-tocopheryl acetate, reference compound], the “β-galactosidase, N2i” value in the test on β-galactosidase is given as “N2i = 2.99 ± 0.45 number of “blue” positive cells/total number of cells”.
